Assay results published in patent US20260007634A1, “PHARMACEUTICAL COMPOSITIONS FOR THE TREATMENT OF ALLERGIC DISEASES” (KINKI UNIVERSITY, priority 2022, published 2026).

Tests used:
[1] = test system: B cells collected from mice; assay: BAFF-induced differentiation into mature B cells (IgM/IgD flow cytometry); format: cell-based, mouse; settings: 100 ng/mL BAFF, 10 days, 100 μM mangiferin, 20 μM 1,3,5,6-tetrahydroxyxanthone, 10 μM others; for population IgM positive and IgD positive (mature B cells): control 0, BAFF only 45.6; for population IgM positive and IgD negative (immature B cells): control 0.529, BAFF only 42.3; for population IgM negative and IgD negative (pre-B cells): control 99.5, BAFF only 11.7
Protocol: B cells collected from mice were cultured in RPMI 1640 medium for 1 day. Then, 100 μM mangiferin, 10 μM mangiferin 8a, 10 μM norathyriol, 20 μM 1,3,5,6-tetrahydroxyxanthone, 10 μM xanthohydrol, 10 μM α-mangostin, 10 μM of γ-mangostin were added to B cell, and after 1 day of culture, 100 ng/mL of BAFF was added, followed by 10 days of culture. After 10 days of culture, cells were stained with anti-IgM and anti-IgD antibodies, markers of B cells, and the expression of IgM and IgD was measured using BD LSRFortessa. Note that IgM negative and IgD negative indicates pre-B cells, IgM positive and IgD negative indicates immature B cells, and IgM positive and IgD positive indicates mature B cells.

NIK = target: T1, NIK (Mus musculus, UniProt Q9WUL6); assay: BAFF-induced NIK activation in B cells (Western blotting, phospho-NIK); format: cell-based; settings: for phospho-NIK band (immunoblotting): 100 ng/mL BAFF 1 h after 23 h compound, 100 μM mangiferin, 20 μM 1,3,5,6-tetrahydroxyxanthone, 10 μM others; for inhibition of NIK activity compared with mangiferin: general statement in the description, referring to the examples
T1 construct: Proteins were extracted with cell lysate and used as samples; endogenous in cells; host or cells: primary splenic B cells from 6-week-old male Balb/c mice
Protocol: (§1) Spleens were harvested from 6-week-old male Balb/c mice and B cells were isolated. After isolation, the cells were seeded in […] dish and cultured in RPMI 1640 medium for 1 day and used as control. In addition, B cells were seeded into 100 mm^2 dish, and after 1 day of culture, 100 ng/mL BAFF was added and cultured for 1 h. Furthermore, B cells were seeded in […] dish, and after 1 day of culture, 100 μM mangiferin, 10 μM mangiferin 8a, 10 μM norathyriol, 20 μM 1,3,5,6-tetrahydroxyxanthone, 10 μM xanthohydrol, 10 μM of α-mangostin, and 10 μM of γ-mangostin were added to B cells, and after 23 h, 100 ng/mL BAFF was added to each, and the cells were incubated for 1 h. All were incubated at 37° C. and 5% CO2.
(§2) Proteins were extracted with cell lysate and used as samples. Each sample was transferred to a PVDF membrane after SDSPAGE and assayed with anti-phospho-NIK, anti-NIK, anti-NF-κB p52, anti-NF-κB p65 and anti-Lamin antibodies.
(§3) The antibody species is indicated in the vertical direction. Specifically, in the case of anti-phospho-NIK antibody (described as “Phospho-NIK”), anti-NIK antibody (described as “NIK”), anti-NF-κB p52 antibody (described as “NF-κB p52 nuclear”), anti-NF-κB p65 antibody (described as “NF-κB p65 nuclear”) and anti-Lamin antibody (described as “Lamin”).

NF-κB p52 = assay: BAFF-stimulated B cells, nuclear NF-κB p52 (Western blotting); format: cell-based, mouse; settings: vs 100 ng/mL BAFF; 100 μM mangiferin, 20 μM 1,3,5,6-tetrahydroxyxanthone, 10 μM others
Protocol: as §1, §2, §3

[2] = test system: B cells collected from mice; assay: BAFF-induced differentiation into plasma cells (CD138 flow cytometry); format: cell-based, mouse; settings: 100 ng/mL BAFF, 10 days; 100 μM mangiferin, 20 μM 1,3,5,6-tetrahydroxyxanthone, 10 μM others; vs BAFF-added group
Protocol: B cells collected from mice were cultured in RPMI 1640 medium for 1 day. Then, 100 μM mangiferin, 10 μM mangiferin 8a, 10 μM norathyriol, 20 μM 1,3,5,6-tetrahydroxyxanthone, 10 μM xanthohydrol, 10 μM α-mangostin, 10 μM of γ-mangostin were added to B cell, and after 1 day of culture, 100 ng/mL of BAFF was added, followed by 10 days of culture. After 10 days of culture, cells were stained with anti-CD138 antibody, a marker of plasma cells, and CD138 expression was measured using BD LSRFortessa.
In all figures, the horizontal axis represents the expression level of CD138 and the vertical axis represents the number of cells.

TSLP = assay: Auricular tissue TSLP ELISA, atopic dermatitis mice; format: in vivo, mouse; settings: day 7, topical application, control 317, vehicle 1533
Protocol: (§4) MC903 at 2 nM was applied to the right auricle of a 6-week-old male Balb/c (Japan SLC Inc.). Starting 8 h later, 5% norathyriol aqueous solution (1 mL of ethanol containing […] of norathyriol), betamethasone ointment, and delgocitinib ointment were applied to the auricle for 7 days. The measurement of auricular skin swelling was calculated by calipers. The day on which the first application of the compound was made was defined as day 0. Betamethasone and delgocitinib are currently in clinical use in atopic dermatitis and were used as control drugs in this example.
The mouse TSLP ELISA kit (R&D) was used for this measurement.

IgE antibody = assay: Serum IgE antibody ELISA, atopic dermatitis mice; format: in vivo, mouse; settings: day 7, topical application, control 1214, vehicle (MC903) 2588
Protocol: as §4
Serum was collected from mice on day 7 in Example 1, and IgE antibody production was measured by enzyme-linked immunosorbent assay (ELISA). This assay was performed using a mouse IgE antibody ELISA kit (R&D).

IL-4 = assay: Auricular tissue IL-4 ELISA, atopic dermatitis mice; format: in vivo, mouse; settings: day 7, topical application, control 56, vehicle 152
Protocol: as §4
The mouse IL-4 ELISA kit (R&D) was used for this measurement.

IL-5 = assay: Auricular tissue IL-5 ELISA, atopic dermatitis mice; format: in vivo, mouse; settings: day 7, topical application, control 15, vehicle 32
Protocol: as §4
The mouse IL-5 ELISA kit (R&D) was used for this measurement.

T1 sequence (Q9WUL6 whole entry): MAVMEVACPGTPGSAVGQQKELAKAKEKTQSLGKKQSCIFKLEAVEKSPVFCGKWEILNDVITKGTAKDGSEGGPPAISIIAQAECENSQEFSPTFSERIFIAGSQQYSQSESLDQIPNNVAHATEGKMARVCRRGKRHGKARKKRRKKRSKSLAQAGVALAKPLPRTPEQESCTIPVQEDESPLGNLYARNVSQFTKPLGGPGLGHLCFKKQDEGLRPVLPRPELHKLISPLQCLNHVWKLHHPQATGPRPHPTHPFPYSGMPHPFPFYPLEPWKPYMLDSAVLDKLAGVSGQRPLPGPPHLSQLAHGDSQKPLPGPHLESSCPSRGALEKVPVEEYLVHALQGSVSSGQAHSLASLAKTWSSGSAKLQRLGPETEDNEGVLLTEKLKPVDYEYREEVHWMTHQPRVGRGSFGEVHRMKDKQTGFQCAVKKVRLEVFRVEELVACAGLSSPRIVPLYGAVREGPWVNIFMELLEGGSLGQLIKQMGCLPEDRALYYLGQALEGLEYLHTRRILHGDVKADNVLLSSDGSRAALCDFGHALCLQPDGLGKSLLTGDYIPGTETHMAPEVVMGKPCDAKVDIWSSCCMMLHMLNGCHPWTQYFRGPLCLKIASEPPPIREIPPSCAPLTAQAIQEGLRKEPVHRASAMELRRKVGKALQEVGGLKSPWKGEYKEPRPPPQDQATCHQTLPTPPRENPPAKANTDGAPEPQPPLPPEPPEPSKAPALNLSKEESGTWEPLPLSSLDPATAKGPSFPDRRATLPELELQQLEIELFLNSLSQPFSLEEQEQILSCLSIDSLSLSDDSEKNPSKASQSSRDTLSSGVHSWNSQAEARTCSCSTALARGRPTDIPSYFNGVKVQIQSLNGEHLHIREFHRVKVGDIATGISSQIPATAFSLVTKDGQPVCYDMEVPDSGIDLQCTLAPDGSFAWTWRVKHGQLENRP

Structure (SMILES) | population IgM positive and IgD positive (mature B cells) [1] [%] | population IgM positive and IgD negative (immature B cells) [1] [%] | population IgM negative and IgD negative (pre-B cells) [1] [%] | phospho-NIK band (immunoblotting) (NIK) | inhibition of NIK activity compared with mangiferin (NIK) | nuclear NF-κB p52 band (immunoblotting) (NF-κB p52) | CD138 expression [2] | TSLP secretion (TSLP) [pg/mL] | amount of IgE antibody (IgE antibody) [ng/mL] | IL-4 secretion (IL-4) [pg/mL] | IL-5 secretion (IL-5) [pg/mL]
O=c1c2ccc(O)c(O)c2oc2cc(O)cc(O)c12 [1,3,5,6-tetrahydroxyxanthone] | 0 | 2.92 | 96.5 | fainter | more inhibition of NIK activity than mangiferin | fainter | significantly decreased CD138 expression |  |  |  | 
OC1c2ccccc2Oc2ccccc21 [xanthohydrol] | 0 | 3.64 | 96.3 | fainter | more inhibition of NIK activity than mangiferin | fainter | significantly decreased CD138 expression |  |  |  | 
C[C@H]1C[C@H]2[C@@H]3CCC4=CC(=O)C=C[C@]4(C)[C@@]3(F)[C@@H](O)C[C@]2(C)[C@@]1(O)C(=O)CO [betamethasone] |  |  |  |  |  |  |  | 651 | 1175 | 45 | 8
O=c1c2cc(O)c(O)cc2oc2cc(O)c([C@@H]3O[C@H](CO)[C@@H](O)[C@H](O)[C@H]3O)c(O)c12 [mangiferin] | 0 | 3.24 | 95.8 | fainter |  | fainter | significantly decreased CD138 expression |  |  |  | 
COc1c(O)cc2oc3cc(O)c(CC=C(C)C)c(O)c3c(=O)c2c1CC=C(C)C [α-mangostin] | 0.363 | 21.2 | 78.1 | fainter | more inhibition of NIK activity than mangiferin | fainter | significantly decreased CD138 expression |  |  |  | 
C[C@H]1CN(C(=O)CC#N)[C@]12CCN(c1ncnc3[nH]ccc13)C2 [delgocitinib] |  |  |  |  |  |  |  | 971 | 1812 | 159 | 33
CC(C)=CCc1c(O)cc2oc3cc(O)c(O)c(CC=C(C)C)c3c(=O)c2c1O [γ-mangostin] | 0.561 | 19.7 | 79.7 | fainter | more inhibition of NIK activity than mangiferin | fainter | significantly decreased CD138 expression |  |  |  | 
